Reference: patent US6482849B1, “Inhibitors of α4β1 mediated cell adhesion” (Tanabe Seiyaku Co., Ltd., priority 1997, dated 2002)
Counter-ions that a name gives are not always drawn.

Assays:
[1] = molecular target: T1, α4β1 integrin (Jurkat T-cell adhesion to IL-1 stimulated endothelial cell monolayers) (Homo sapiens, UniProt P05556+P13612); assay: Jurkat-Endothelial Cell Adhesion Assay (Jurkat EC); type: cell-based; details: Jurkat cells on IL-1 stimulated HUVEC monolayers
T1 construct: a T-cell line, Jurkat, known to express the α4β1 integrin; host or cells: Jurkat T-cell line
Protocol: The following assay established the activity of the present compounds in inhibiting β1-mediated cell adhesion in a representative in vitro system. This assay measures the adhesive interactions of a T-cell line, Jurkat, known to express the α4β1 integrin, to endothelial monolayers in the presence of test compounds. The test compounds were added in increasing concentrations to T-cells and then the T-cell compound mixture was added to IL-1 stimulated endothelial cell monolayers. The plates were incubated, washed and the percentage of attached cells was quantitated. […] Human umbilical vein endothelial cells were purchased from Clonetics (San Diego, Calif.) at passage number 2. The cells were grown on 0.5% porcine skin gelatin pre-coated flasks (Sigma, St. Louis Mo.) in EGM-UV media (Clonetics, San Diego, Calif.) supplemented with 10% fetal bovine serum. Cells are refed every 2-3 days reaching confluence by day 4 to 6. […] The endothelial cells are not used following passage 6. Am The T-cell line Jurkat was obtained from American Type Tissue Culture Collection (Rockville, Md.) and the cells were cultured in RPMI containing 10% fetal calf serum. The cells were washed twice in Hank's Balanced Salt Solution (HBSS) and resuspended in Dulbecco's […] Eagle's Media (DMEM) containing 2.5 mg/ml Human Serum Albumin (HSA). Jurkat cells (1×10^6 cells/ml) were stained with 10 ng/ml BCECF-AM z z (Molecular Probes, Eugene, Ore.)) in HBSS without phenol red. The cells were loaded with BCECF for 60 minutes in the dark at 37° C., washed 2 times, and resusupended in DMEM-HSA solution.
Confluent endothelial monolayers, grown in 96-well tissue culture plates, were stimulated for 4 hr. at 37° C. with 0.1 ng/ml (˜50 U/ml) recombinant IL-1 (Amgen, Thousand Oaks, Calif.). Following this incubation, the monolayers were washed twice with HBSS and 0.1 ml of DMEM-HSA solution was added. Jurkat cells (5×10^5 cells) were combined with the appropriate concentration of the test compound and 0.1 ml of the Jurkat cell-compound mixture was added to the endothelial cell monolayers. Generally, 100, 20, 5 and 1.25 μM compound concentrations were tested. […] The plates were placed on ice for 5 minutes to allow for Jurkat cell settling and the plates were incubated at 37° C. for 20 minutes. Following this incubation, the monolayers were washed twice with PBS containing 1 mM calcium chloride and 1 mM magnesium chloride and the plates were read using a Millipore Cytofluor 2300 (Marlboro, Mass.). Fluorescence in each well was measured as Arbitrary Fluorescence Units and percent adhesion in the absence of compound was adjusted to 100% and the % adhesion in the presence of compound was calculated. Monolayers were also fixed in 3% paraformaldehyde and evaluated microscopically to verify the adhesion. This procedure is a modification of a previously published method (Cardarelli et al., J. Biol. Chem. 269:18668-18673 (1994)).

[2] = molecular target: T2, α4β1 integrin (Jurkat cell adhesion to immobilized CS-1 derived peptide CLHPGEILDVPST) (Homo sapiens, UniProt P05556+P13612); assay: Jurkat-CS-1 Assay; type: cell-based; details: Jurkat cells on CS-1 peptide coated plates
T2 construct: 100 μl of Jurkat cells (2.5×10^6 cells/ml) in DMEM plus BSA; endogenous in cells; host or cells: Jurkat T-cell line
Protocol: The CS-1 derived peptide, CLHPGEILDVPST, and the scrambled control peptide, CLHGPIELVSDPT, were synthesized on a Beckman 990 synthesizer using t-Boc methodology. The peptides were immobilized onto microtiter plates using the heterobifunctional crosslinker 3-(2-pyridyldithio)propionic acid N-hydroxysuccinimide ester (SPDP) as reported by Pierschbacher et al., Proc. Natl. Acad. USA, 80:1224-1227 (1983). Microtiter plates were coated with 20 μg/ml HSA for 2 hr. at room temperature, washed once with PBS and derivatized with 10 μg/ml SPDP for 1 hr. After washing, 100 μl of a 100 μg/ml cysteine containing peptide solution which had been recently dissolved was added to the wells and allowed to crosslink to the plates overnight at 4° C. Unbound peptide was removed from plates by washing with PBS. To block non-reacted sites, the plates are coated with 100 μl of a 2.5 mg/ml BSA solution in PBS for 1 hr. at 37° C. 100 μl of Jurkat cells (2.5×10^6 cells/ml) in DMEM plus BSA (2.5 mg/ml) was mixed with an appropriate concentration of the compound to be tested and the mixture was added to peptide coated dishes and incubated for 1 hr. at 37° C. Generally 100, 20, 5 and 1.25 μM concentrations of the compound were tested.
Following this incubation the plates were washed once with PBS and the attached cells were fixed with 3% paraformaldehyde in PBS and stained with 0.5% toluidine blue in 3.7% formaldehyde. The cells were stained overnight at room temperature and the optical density at 590 nm of toluidine blue stained cells was determined using a vertical pathway spectrophotometer to quantitate attachment (VMAX Kinetic Microplate Reader, Molecular Devices, Menlo Park, Calif.). This procedure is a modification of a previously published method (Cardarelli et al, J. Biol. Chem., 269:18668-18673 (1994) and Cardarelli et al, Proc. Natl. Acad. Sci. USA, 83:2647-2651 (1986)).

T2 sequence (P13612 34-1032): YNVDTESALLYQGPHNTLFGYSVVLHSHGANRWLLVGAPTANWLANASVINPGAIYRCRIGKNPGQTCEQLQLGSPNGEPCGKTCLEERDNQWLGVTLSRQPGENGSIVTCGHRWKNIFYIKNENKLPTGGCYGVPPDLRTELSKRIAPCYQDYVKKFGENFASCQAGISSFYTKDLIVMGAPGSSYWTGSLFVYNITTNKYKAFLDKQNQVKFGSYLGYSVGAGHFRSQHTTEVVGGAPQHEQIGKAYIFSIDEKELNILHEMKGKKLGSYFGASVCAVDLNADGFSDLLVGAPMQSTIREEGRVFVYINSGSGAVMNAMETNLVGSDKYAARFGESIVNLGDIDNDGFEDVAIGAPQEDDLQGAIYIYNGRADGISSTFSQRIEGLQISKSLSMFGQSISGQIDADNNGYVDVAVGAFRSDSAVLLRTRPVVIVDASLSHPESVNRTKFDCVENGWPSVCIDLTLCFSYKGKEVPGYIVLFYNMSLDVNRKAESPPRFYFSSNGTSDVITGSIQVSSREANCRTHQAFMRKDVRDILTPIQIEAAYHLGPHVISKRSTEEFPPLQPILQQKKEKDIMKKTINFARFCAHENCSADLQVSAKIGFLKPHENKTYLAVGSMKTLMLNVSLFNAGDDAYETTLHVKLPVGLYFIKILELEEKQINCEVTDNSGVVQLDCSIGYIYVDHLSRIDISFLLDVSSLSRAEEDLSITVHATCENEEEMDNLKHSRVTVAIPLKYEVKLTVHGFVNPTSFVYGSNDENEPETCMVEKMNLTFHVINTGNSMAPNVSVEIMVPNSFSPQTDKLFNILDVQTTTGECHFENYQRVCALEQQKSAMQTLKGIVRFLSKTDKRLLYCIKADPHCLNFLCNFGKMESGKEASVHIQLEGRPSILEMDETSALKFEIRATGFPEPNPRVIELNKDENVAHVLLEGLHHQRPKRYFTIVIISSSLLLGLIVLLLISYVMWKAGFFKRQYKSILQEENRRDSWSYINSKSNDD
T2 sequence (P05556 21-798): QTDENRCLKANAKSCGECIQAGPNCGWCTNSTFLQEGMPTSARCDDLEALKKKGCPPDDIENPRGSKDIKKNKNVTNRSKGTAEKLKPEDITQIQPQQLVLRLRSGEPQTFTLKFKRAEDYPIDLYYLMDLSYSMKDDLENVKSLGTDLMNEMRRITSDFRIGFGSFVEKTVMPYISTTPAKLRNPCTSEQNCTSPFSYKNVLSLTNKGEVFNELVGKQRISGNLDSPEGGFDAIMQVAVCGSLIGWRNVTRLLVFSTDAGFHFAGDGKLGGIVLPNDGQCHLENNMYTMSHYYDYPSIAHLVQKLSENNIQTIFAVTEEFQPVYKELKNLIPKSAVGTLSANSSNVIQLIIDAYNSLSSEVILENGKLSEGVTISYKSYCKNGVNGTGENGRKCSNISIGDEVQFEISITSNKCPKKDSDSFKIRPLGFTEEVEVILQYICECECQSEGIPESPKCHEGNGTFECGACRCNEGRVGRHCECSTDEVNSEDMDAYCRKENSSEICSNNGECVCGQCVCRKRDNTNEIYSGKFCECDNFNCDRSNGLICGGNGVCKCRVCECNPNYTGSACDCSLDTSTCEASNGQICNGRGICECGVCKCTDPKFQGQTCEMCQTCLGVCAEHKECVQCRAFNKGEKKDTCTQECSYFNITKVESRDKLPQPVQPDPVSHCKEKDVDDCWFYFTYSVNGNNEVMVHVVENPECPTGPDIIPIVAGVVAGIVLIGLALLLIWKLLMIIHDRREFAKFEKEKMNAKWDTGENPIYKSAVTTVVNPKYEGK
T1 sequence (P13612 34-1032): as the sequence (P13612 34-1032) above
T1 sequence (P05556 21-798): as the sequence (P05556 21-798) above

SMILES	IC50 [1] [nM]	IC50 [2] [nM]
CC1(C)[C@@H](C(=O)N[C@@H](Cc2ccc(OCc3ccc4ccccc4c3)cc2)C(=O)O)CC[C@@]1(C)C(=O)O [Example 10]	800 to 5000	80 to 500
CC1(C)[C@@H](C(=O)N[C@@H](Cc2ccc(C(=O)Nc3ccccc3C(F)(F)F)cc2)C(=O)O)CC[C@@]1(C)C(=O)O [Example 222]	≤ 800	80 to 500
CC1(C)[C@@H](C(=O)N[C@@H](Cc2ccc(NC(=O)c3cc(C(F)(F)F)ccc3Cl)cc2)C(=O)O)CC[C@@]1(C)C(=O)O [Example 232, (1S-cis)-N-[(3-Carboxy-2,2,3-trimethyl-cyclopentyl)carbonyl]-4-[(2-chloro-5-trifluoromethylbenzoyl)amino]-L-phenylalanine]	≤ 800	≤ 80
CC1(C)[C@@H](C(=O)N[C@@H](Cc2ccc(C(=O)Nc3c(Cl)cccc3Cl)cc2)C(=O)O)CC[C@@]1(C)C(=O)O [Example 153]	800 to 5000	80 to 500
CNC(=O)[C@@H]1CCCN1C(=O)[C@]1(C)CC[C@H](C(=O)N[C@@H](Cc2ccc(NC(=O)c3c(Cl)cccc3Cl)cc2)C(=O)O)C1(C)C (relative stereo) [Example 215, [1S-[1α,3α(R*)]]-N-[3-[[2-[(Methylamino)carbonyl]-1-pyrrolidinyl]carbonyl]-2,2,3-trimethyl-cyclopentyl]carbonyl]-4-[(2,6-dichlorobenzoyl)amino]-L-phenylalanine monosodium salt]	≤ 800	80 to 500
COC(=O)[C@H](Cc1ccc(NC(=O)c2ccccc2C)cc1)NC(=O)[C@H]1CC[C@@](C)(C(=O)O)C1(C)C [Example 137]		80 to 500

More lines, now with the values ahead:

IC50 [1] [nM]	IC50 [2] [nM]	SMILES
≤ 800	500 to 1000	COC(=O)[C@H](Cc1ccc(NC(=O)c2cc(C(F)(F)F)ccc2Cl)cc1)NC(=O)[C@H]1CC[C@@](C)(C(=O)O)C1(C)C [Example 231, (1S-cis)-N-[(3-Carboxy-2,2,3-trimethyl-cyclopentyl)carbonyl]-4-[(2-chloro-5-trifluoromethylbenzoyl)amino]-L-phenylalanine methyl ester]
≤ 800	≤ 80	CC1(C)[C@@H](C(=O)N[C@@H](Cc2ccc(NC(=O)c3c(Cl)cccc3Cl)cc2)C(=O)O)CC[C@@]1(C)C(=O)NO [Example 219, (1S-cis)-4-[(2,6-Dichlorobenzoyl)amino]-N-[[3-[(hydroxyamino)carbonyl]-2,2,3-trimethyl-cyclopentyl]carbonyl]-L-phenylalanine]
≤ 800	≤ 80	CC1(C)[C@@H](C(=O)N[C@@H](Cc2ccc(NC(=O)c3c(Cl)cccc3Cl)cc2)C(=O)O)CC[C@@]1(C)C(=O)N1CCOCC1 [Example 225, (1S-cis)-4-[(2,6-Dichlorobenzoyl)amino]-N-[[2,2,3-trimethyl-3-[(4-morpholinyl)carbonyl]-cyclopentyl]carbonyl]-L-phenylalanine]
800 to 5000	80 to 500	C[C@H](NC(=O)[C@]1(C)CC[C@H](C(=O)N[C@@H](Cc2ccc(OCc3c(Cl)cccc3Cl)cc2)C(=O)O)C1(C)C)C(=O)O (relative stereo) [Example 188, [1S-[1α, 3α(R)]]-N-[[3-[[(1-Carboxyethyl)amino]carbonyl]-2,2,3-trimethylcyclopentyl]carbonyl]-O-[(2,6-dichlorophenyl)methyl]-L-tyrosine]
≤ 800	80 to 500	CC1(C)[C@@H](C(=O)N[C@@H](Cc2ccc(OCc3c(Cl)cccc3Cl)c(O)c2)C(=O)O)CC[C@@]1(C)C(=O)O [Example 65]
800 to 5000		CC1(C)[C@H](C(=O)N[C@@H](Cc2ccc(OCc3c(Cl)cccc3Cl)cc2)C(=O)O)CC[C@]1(C)C(=O)O [Example 189, (1R-cis)-N-[(3-Carboxy-2,2,3-trimethylcyclopentyl)carbonyl]-O-[(2,6-dichlorophenyl)methyl]-L-tyrosine]
5000 to 10000		COc1ccc(Cn2cnc(C[C@H](NC(=O)[C@H]3CC[C@@](C)(C(=O)O)C3(C)C)C(=O)O)c2)cc1 [Example 31]
